Reference: US20080242636A1, “MODIFIED CYCLODEXTRIN SULFATE-71 (TERIGYN) AS A MICROBICIDE AGENT” (priority 2007, published 2008)

Experiments:
[1] = system: LAV-1, a laboratory strain of HIV-1; assay: p24 antigen anti-HIV assay in pretreated PBMC and MT4 cells infected with LAV-1; assay type: cell-based
Method: (§1) Primary peripheral blood mononuclear cells and a MT4 cell line were pretreated with varying concentrations of terygyn before infection with LAV-1, a laboratory strain of HIV-1. As a control, a set of similar cells were not pretreated with the compound. Anti-HIV activity was measured using p24 antigen testing. Terygyn achieved total HIV inhibition (IC100) at 1 ug/ml. Cell toxicity was not observed till the concentration of terygyn was 10 ug/ml. […] Terygyn's ability to inhibit HIV at lower concentration makes it a more attractive compound for safe clinical use.

HIV-1 R5 viruses = assay: TZM-bL luciferase assay, R5 viruses; assay type: cell-based; details: TZM-bL cells, 48 hr at 37 C
Method: (§2) To further determine the inhibition of Terygyn of either CXCR4 or R5 viruses in cervical explants, various concentrations of Terygyn were cultured in TZM-bL cells with TCID50 HIV-1. TZM-bL are X4 positive HeLa cell clones that have been engineered to express CD4 and CCR5 and integrates a reporter gene for firefly luciferase and E coli b-galactosidase. Virus and drugs were left in culture for 48 hr at 37 C and luciferase assay determined thereafter.

HIV = details: as described by Tanabe Seiyaku 1991; cited from earlier work
[2] = system: Primary peripheral blood mononuclear cells and MT4 cell line; assay type: cell-based
Method: as §1

[3] = rats, safety trials; cited from earlier work
HIV-1 X4 viruses = assay: TZM-bL luciferase assay, X4 viruses; assay type: cell-based; details: TZM-bL cells, 48 hr at 37 C
Method: as §2

[4] = IC50 comparison with literature value
[5] = PBMC and MT4 pretreated, LAV-1, p24 antigen

## O=S(=O)([O-])OC[C@@H]1O[C@@H]2O[C@H]3[C@H](OS(=O)(=O)[O-])[C@H](OCc4ccccc4)[C@@H](O[C@H]4[C@H](OS(=O)(=O)[O-])[C@H](OCc5ccccc5)[C@@H](O[C@H]5[C@H](OS(=O)(=O)[O-])[C@H](OCc6ccccc6)[C@@H](O[C@H]6[C@H](OS(=O)(=O)[O-])[C@H](OCc7ccccc7)[C@@H](O[C@H]7[C@H](OS(=O)(=O)[O-])[C@H](OCc8ccccc8)C(O[C@H]8[C@H](OS(=O)(=O)[O-])[C@H](OCc9ccccc9)C(O[C@H]1[C@H](OS(=O)(=O)[O-])[C@@H]2OCc1ccccc1)O[C@H]8COS(=O)(=O)[O-])O[C@H]7COS(=O)(=O)[O-])O[C@H]6COS(=O)(=O)[O-])O[C@H]5COS(=O)(=O)[O-])O[C@H]4COS(=O)(=O)[O-])O[C@H]3COS(=O)(=O)[O-].[Na+].[Na+].[Na+].[Na+].[Na+].[Na+].[Na+].[Na+].[Na+].[Na+].[Na+].[Na+].[Na+].[Na+] [Terygyn, Tetradecasodium heptakis (2-0 benzyl)β-cyclodextrin tetradecasulfate]
[1]; [4]
  fold more potent than PRO 2000: fifty-fold
  fold more potent than Ushercell: 100 fold
[1]; [5]
  in vitro antiviral activity IC50: 0.5 µg/mL
  total HIV inhibition (IC100): 1 µg/mL
HIV-1 R5 viruses
  IC50 R5 viruses: 0.13 ± 0.05 µg/mL
HIV
  anti-HIV activity in vitro: 0.98 µg/mL
[2]
  concentration until which cell toxicity was not observed: 10000 ng/mL
[3]
  tolerability: 125 mg/kg/day
HIV-1 X4 viruses
  IC50 X4 viruses: 0.88 ± 1.2 µg/mL
